Series [1] deals with 6 Hz (32 mA) model. The settings on record: cited from earlier work; for ED50: 6 Hz model, earlier work; for anticonvulsant activity in the 6 Hz model: mouse 6 Hz (32 mA), previously shown.
The next series relates to seizures. In words: anticonvulsant properties (model not stated). The settings on record: in vivo.
In the next series the test system is rotorod test. The series is described as follows: Toxicity by the rotorod test. The following applies: for Toxicity, animals/number of animals tested: dose 100 mg/kg ip. Format: in vivo. An excerpt:
All compounds (FIG. 1) were screened in three whole mouse models: the maximal electroshock model (MES), the scMET test (pentylenetetrazole, Metrazol), and the 6 Hz psychomotor seizure model of partial epilepsy (32 mA). Adult male CF No 1 albino mice (26-30 g) were used for the 6 Hz test and 18-25 g mice were used in the MES and scMet tests. The animals are housed, fed, and handled in a manner consistent with the recommendations in the National Council Publication, “Guide for the Care and Use of Laboratory Animals”. […] All compounds were administered ip in polyethylene glycol, 30%.
The 6 Hz test (also known as the minimal clonic seizure, or psychomotor test) involved delivering a corneal stimulus of 32 mA for 3 s. […] Seizures consist of a minimal clonic phase followed by stereotyped automatistic behaviors. Animals not showing such behaviors were considered protected. Toxicity was determined by the rotorod test. For this test, the animal is placed on a rotorod at 6 rpm following dosing. The animal is considered toxic if it falls off the rotorod three times in a 1 min period. The ED50, TD50 and confidence intervals were determined by probit analysis.
In general terms: Falling from the rotarod earlier than controls is read as motor impairment.

The test system of series [2] is scMET model (pentylenetetrazole, Metrazol). The series is described as follows: scMET test (subcutaneous Metrazol). Format: in vivo, mouse. The following applies: Mus musculus, scMET, read-out: number of animals protected/number of animals tested; for responders at 30 mg/kg: 30 mg/kg ip; for responders at 100 mg/kg: 100 mg/kg ip; for responders at 300 mg/kg: 300 mg/kg ip. An excerpt: (§1) All compounds (FIG. 1) were screened in three whole mouse models: the maximal electroshock model (MES), the scMET test (pentylenetetrazole, Metrazol), and the 6 Hz psychomotor seizure model of partial epilepsy (32 mA). Adult male CF No 1 albino mice (26-30 g) were used for the 6 Hz test and 18-25 g mice were used in the MES and scMet tests. The animals are housed, fed, and handled in a manner consistent with the recommendations in the National Council Publication, “Guide for the Care and Use of Laboratory Animals”. The animal studies were performed by the NINDS Anticonvulsant Screening Program under IACUC number 09-12014. All compounds were administered ip in polyethylene glycol, 30%.
(§2) The MES model, which generates generalized tonic-clonic seizures, involved pretreating mice with experimental compound, and administering 60 Hz of alternating current (50 mA) for 2 s via corneal electrodes. Prior to current administration, the animal's corneas were treated topically with 1% tetracaine. Animals are considered protected if the hindlimb tonic extensor component is absent. The scMET test was done by pretreating mice with experimental compound and administering 85 mg/kg Metrazol into the loose folds of the skin in the midline of the neck. Eighty-five mg/kg Metrazol is the dose that causes seizures in 97% (CD97) of control animals.

The subject of series [3] is maximal electroshock (MES) model. The series is described as follows: maximal electroshock (MES) model. The format is in vivo, mouse. The following applies: for responders at 30 mg/kg / responders at 100 mg/kg / responders at 300 mg/kg: Mus musculus, MES; for responders at 30 mg/kg: 30 mg/kg ip; for responders at 30 mg/kg / responders at 300 mg/kg: read-out: number of animals protected/number of animals tested; for responders at 100 mg/kg: 100 mg/kg ip, read-out: number of animals protected/number of animals tested (converted); for responders at 300 mg/kg: 300 mg/kg ip.
Source text: as §1, §2
A general note: In the maximal electroshock model the usual endpoint is tonic extension of the hind limbs.

In series [4] the test system is 6 Hz (32 mA) model. In words: 6 Hz (32 mA) psychomotor seizure model of partial epilepsy. Format: in vivo, mouse. The settings on record: for Protective effects, number of animals protected/number of animals tested / ED50: 6 Hz (32 mA); for Protective effects, number of animals protected/number of animals tested: 100 mg/kg ip; for ED50: ip, probit analysis.
Source text: as §1
The 6 Hz test (also known as the minimal clonic seizure, or psychomotor test) involved delivering a corneal stimulus of 32 mA for 3 s. This current elicits psychomotor seizures in 97% of untreated animals. Seizures consist of a minimal clonic phase followed by stereotyped automatistic behaviors. Animals not showing such behaviors were considered protected. Toxicity was determined by the rotorod test. For this test, the animal is placed on a rotorod at 6 rpm following dosing. The animal is considered toxic if it falls off the rotorod three times in a 1 min period. The ED50, TD50 and confidence intervals were determined by probit analysis.

Series [5] has as its system maximal electroshock (MES) model. The following applies: mouse; previously demonstrated; cited from earlier work.
In series [6] the test system is scMET model (pentylenetetrazole, Metrazol). The following applies: mouse; previously demonstrated; cited from earlier work.
A short description of series [7]: analgesic properties (test not described).

Each structure is given as a SMILES string. “And” between values parts separate entries of the source, which are not always exact repeats. Equal values may be shown once. “Also recorded” adds a separate entry of the source. Read-outs that look alike come from different tables or passages of the source.

Broadly, the ED50 is the dose that gives a 50% effect, or the effect in half of the subjects. For the compound `CCC(C)c1cc(C(O)C(F)(F)F)cc(C(C)CC)c1O` (stereo not shown) [MB050], in the series on 6 Hz (32 mA) model [1], the median effective dose (ED50) was 73 mg/kg and the “anticonvulsant activity in the 6 Hz model” value (“anticonvulsant activity” below) was “good anticonvulsant activity”.

Regarding `CC(C)c1nc(C(O)C(F)(F)F)ccc1O` (stereo not shown) [Compound 20, 2-isopropyl-6-(2,2,2-trifluoro-1-hydroxyethyl)pyridin-3-ol], the anticonvulsant properties entry with seizures is “anticonvulsant properties”.

For `CCCc1cc(C(O)C(F)(F)F)cc(Br)c1O` (stereo not shown) [RM1204, 2-Bromo-6-n-propyl-4-(2,2,2-trifluoro-1-hydroxy-ethyl)-phenol], the “Toxicity, animals/number of animals tested” value is 1/4 in the series with rotorod test (0.25 h); 0/4 with rotorod test (0.5 h); 1/4 in the series on rotorod test (1 h); 0/4 with rotorod test (2 h); 0/4 with rotorod test (4 h). In addition, in the series on rotorod test (mouse, in vivo), the “toxicity” value is on record as “only low toxicity”. Further, the responders at 30 mg/kg in series [2] (0.5 h), in series [2] (4 h), in series [3] (0.5 h) and in [3] (4 h) was 0% each time. Also, the responders at 100 mg/kg in [2] (0.5 h), in series [2] (4 h), in series [3] (0.5 h) and in [3] (4 h) was 0% throughout. Further, the responders at 300 mg/kg in series [2] (0.5 h), in series [2] (4 h), in series [3] (0.5 h) and in series [3] (4 h) was 0% each time. In series [3] (any dose (30-300 mg/kg ip)), the “MES protection” value is reported as “no MES protection”. Further, the “Protective effects, number of animals protected/number of animals tested” value was 4/4 and complete protection in the series with 6 Hz (32 mA) model [4] (0.25 h, 100 mg/kg); 4/4 and complete protection with 6 Hz (32 mA) model [4] (0.5 h, 100 mg/kg); “partial protection and 2/4” with 6 Hz (32 mA) model [4] (1 h, 100 mg/kg); 0/4 in the series on 6 Hz (32 mA) model [4] (2 h); 0/4 with 6 Hz (32 mA) model [4] (4 h).

As to `CC(C)c1cc(C(O)C(F)(F)F)cc(C(C)C)c1O` (stereo not shown) [MB003], in the series on 6 Hz (32 mA) model [1], the ED50 was 38.6 mg/kg and the “anticonvulsant activity” value is given as “good anticonvulsant activity; also recorded: protective”. In addition, the “protective effects in the MES model” value in series [5] was “little to no protective effects”. For the same compound, the “protective effects in the scMET model” value in series [6] is on record as “little to no protective effects”.

What is called TD50 is the 50% point of the dose-response relation for the toxic effect studied. A high value points to lower toxicity. Turning to `CCC(C)c1cc(C(O)C(F)(F)F)ccc1O` (stereo not shown) [RM131, 2-sec-Butyl-4-(2,2,2-trifluoro-1-hydroxy-ethyl)-phenol], the TD50 with rotorod test (rotorod, ip, probit analysis) was 86 mg/kg and 86.04 mg/kg. Also, the responders at 30 mg/kg in series [2] (0.5 h), in [2] (4 h), in series [3] (0.5 h) and in series [3] (4 h) was 0% each time. Further, the responders at 100 mg/kg in [2] (0.5 h), in [2] (4 h), in [3] (0.5 h) and in [3] (4 h) was 0% in each case. Moreover, the responders at 300 mg/kg in series [2] (0.5 h) is 100%; in series [2] (4 h), 0%; in series [3] (0.5 h), 100%; in [3] (4 h), 0%. In [3] (300 mg/kg dose), the “MES protection” value is on record as “some protection”. Besides, the “MES protection, time points after dosing” value in series [3] (300 mg/kg dose) is recorded as “protected only at 0.5 h”. The ED50 was found to be 53.85 mg/kg in the series with 6 Hz (32 mA) model [4] and 53.8 mg/kg in the series on 6 Hz (32 mA) model [4] (Mus musculus, read-out: ED50). Besides, the “complete protection, animals” value in the series on 6 Hz (32 mA) model [4] (6 Hz, 100 mg/kg, one or more time points from 0.25 or 1 h) is on record as 4 of 4. Also, in the series on 6 Hz (32 mA) model [4] (mouse, in vivo), the “antiseizure activity in the 6 Hz model” value is “relatively good antiseizure activity”.

For `CC(C)c1cc(C(O)C(F)(F)F)cc(Br)c1O` (stereo not shown) [compound 10], the analgesic properties result in series [7] is on record as “analgesic properties”.

Regarding `Cc1cc(C(O)C(F)(F)F)cc(C)c1O` (stereo not shown) [DMPF], the “anticonvulsant activity” value with 6 Hz (32 mA) model [1] is “lack of activity”.

The values are drawn from patent US9422248B2 (University of Iowa Research Foundation, priority 2012, dated 2016).
